Columns and labels:
male C57BL/6N mice = assay: Acceptable Timing of Administration in In Vivo Test; settings: oral; given simultaneously with vs one hour before glucose loading (2 g/kg); improvement factor for glucose tolerance compared
Protocol: Acceptable Timing of Administration in In Vivo Test
The respective tests described below were carried out in combination with the in vivo test (administration before 0.5 hour) as described in Assay Example 2:
1. A test compound is administered simultaneously with glucose loading (2 g/kg) (the test compound is suspended in an aqueous solution of 0.5% methyl cellulose; the solution is combined with an equal volume of a glucose solution; and the mixture is administered orally at a dose of 10 ml/kg);
2. A test compound is administered one hour before glucose loading (2 g/kg) (the test compound suspended in an aqueous solution of 0.5% methyl cellulose is administered orally one hour before the oral administration of the glucose solution; each is given orally at a dose of 10 ml/kg).
The improvement factor for glucose tolerance is estimated in each test.

male Wistar rats = assay: Effect of a Test Compound on the Blood Glucose Level of Fasted Male Wistar Rats; type: in vivo; settings: oral dose of 10-30 (mg/kg), 0.5, 1 and 3 hours after administration, compared with control group treated with the medium alone
Protocol: Purpose: Effect of a Test Compound on the Blood Glucose Level of Fasted Male Wistar Rats
Animal: male Wistar rats (purchased from Charles River Japan, Inc.)
A test compound was suspended in 0.5% methyl cellulose (MC) solution and administered orally at a dose of 5 mL/kg. The control group was treated with a 0.5% MC solution. The solution was administered orally at a dose of 5 mL/kg.
Immediately before administering a test compound or 0.5% MC solution, and 0.5, 1, and 3 hours after the administration, without anesthetic the caudal vein was lightly cut with a razor blade to let the blood out. 10 μL of blood was collected and combined with 140 μL of 0.6 M perchloric acid solution. The sample was centrifuged at 3000 g at 4° C. for 10 minutes and the resultant supernatant was assayed with the Glucose CII TEST WAKO (Wako Pure Chemical Industries).

[1] = molecular target: T1, Porcine kidney-derived DPP-IV (Sus scrofa, UniProt P22411); assay: DPPIV-inhibiting Activity Assay; type: biochemical; settings: substrate Gly-Pro-p-nitroanilide 0.33 mM, absorbance at 405 nm
T1 construct: Porcine kidney-derived DPP-IV was dissolved in a reaction buffer; from tissue; host or cells: porcine kidney
T1 sequence (P22411 whole entry): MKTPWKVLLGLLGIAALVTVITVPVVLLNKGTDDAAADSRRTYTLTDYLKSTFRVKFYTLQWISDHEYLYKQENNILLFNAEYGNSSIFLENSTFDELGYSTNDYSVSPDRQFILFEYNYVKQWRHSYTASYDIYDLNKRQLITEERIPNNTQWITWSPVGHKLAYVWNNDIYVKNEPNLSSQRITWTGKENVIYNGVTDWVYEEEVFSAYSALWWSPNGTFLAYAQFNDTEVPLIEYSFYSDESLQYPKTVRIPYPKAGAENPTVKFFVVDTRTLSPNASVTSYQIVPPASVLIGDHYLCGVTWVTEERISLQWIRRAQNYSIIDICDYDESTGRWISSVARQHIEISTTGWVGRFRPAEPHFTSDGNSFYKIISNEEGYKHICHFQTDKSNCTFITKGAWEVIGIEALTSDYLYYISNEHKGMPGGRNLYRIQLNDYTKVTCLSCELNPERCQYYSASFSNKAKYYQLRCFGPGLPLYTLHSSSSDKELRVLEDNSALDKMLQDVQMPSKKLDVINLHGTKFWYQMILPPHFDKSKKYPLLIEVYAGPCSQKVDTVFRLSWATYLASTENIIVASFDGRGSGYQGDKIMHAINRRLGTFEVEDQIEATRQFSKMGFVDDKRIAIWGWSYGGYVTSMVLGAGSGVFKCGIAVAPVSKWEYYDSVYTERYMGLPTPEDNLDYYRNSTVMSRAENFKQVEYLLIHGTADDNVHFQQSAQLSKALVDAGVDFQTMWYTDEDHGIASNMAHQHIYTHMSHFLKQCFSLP
Protocol: DPPIV-inhibiting Activity Assay
Porcine kidney-derived DPP-IV was dissolved in a reaction buffer (50 mM Tris-HCl (pH 7.4)/0.1% BSA) at a concentration of […]. After 110 μl of this solution had been combined with 15 μl of an agent, the mixture was incubated at room temperature for 20 minutes. 25 μl of 2 mM Gly-Pro-p-nitroanilide was added (to a final concentration of 0.33 mM) to the solution to initiate the enzyme reaction. The reaction time was 20 minutes. 25 μl of 1N phosphoric acid solution was added to the reaction solution to quench the reaction.

CC#CCn1c(N2CCNCC2)nc2nc(C#N)n(C)c(=O)c21.O=C(O)C(F)(F)F [Example 82, 7-(2-Butynyl)-2-cyano-1-methyl-8-(piperazin-1-yl)-1,7-dihydropurin-6-one trifluoroacetate]
range of acceptable timing of administration (male C57BL/6N mice): sufficiently wide ranges of acceptable timing of administration | change in the blood glucose level (male Wistar rats): no significant change

CC#CCn1c(N2CCNCC2)nc2cnn(C)c(=O)c21 [Example 119, 3-(2-Butynyl)-5-methyl-2-(piperazin-1-yl)-3,5-dihydroimidazo[4,5-d]pyridazin-4-one]
range of acceptable timing of administration (male C57BL/6N mice): sufficiently wide ranges of acceptable timing of administration | change in the blood glucose level (male Wistar rats): no significant change

CC#CCn1c(N2CCCC(N)C2)nc2cnn(C)c(=O)c21.O=C(O)C(F)(F)F (stereo not shown) [Example 120, 2-(3-Aminopiperidin-1-yl)-3-(2-butynyl)-5-methyl-3,5-dihydroimidazo[4,5-d]pyridazin-4-one trifluoroacetate]
range of acceptable timing of administration (male C57BL/6N mice): sufficiently wide ranges of acceptable timing of administration | change in the blood glucose level (male Wistar rats): no significant change

CC#CCn1c(N2CCNCC2)nc2nc(Oc3ccccc3C(N)=O)n(C)c(=O)c21 [Example 122, 2-[7-(2-Butynyl)-1-methyl-6-oxo-8-(piperazin-1-yl)-6,7-dihydro-1H-purin-2-yloxy]benzamide]
range of acceptable timing of administration (male C57BL/6N mice): sufficiently wide ranges of acceptable timing of administration | change in the blood glucose level (male Wistar rats): no significant change

CC#CCn1c(N2CCNCC2)nc2nc(C#N)n(Cc3ccccc3C#N)c(=O)c21.Cl [Example 229, 7-(2-Butynyl)-1-(2-cyanobenzyl)-6-oxo-8-(piperazin-1-yl)-6,7-dihydro-1H-purine-2-carbonitrile hydrochloride]
range of acceptable timing of administration (male C57BL/6N mice): sufficiently wide ranges of acceptable timing of administration | change in the blood glucose level (male Wistar rats): no significant change

CC#CCn1c(N2CCNCC2)nc2cnn(Cc3ccccc3C#N)c(=O)c21.O=C(O)C(F)(F)F [Example 267, 2-[3-(2-Butynyl)-4-oxo-2-(piperazin-1-yl)-3,4-dihydroimidazo[4,5-d]pyridazin-5-ylmethyl]benzonitrile trifluoroacetate]
range of acceptable timing of administration (male C57BL/6N mice): sufficiently wide ranges of acceptable timing of administration | change in the blood glucose level (male Wistar rats): no significant change

Methyl 2-[7-(2-butynyl)-1-methyl-6-oxo-8-(piperazin-1-yl)-6,7-dihydro-1H-purin-2-yloxy]phenylacetate trifluoroacetate [Example 4]
IC50 [1]: 211 nM
